Experimental data from publication PMC10698726 (Molecular Pharmaceutics, 2023).
Where two headings read alike, the source gives them in different places.

How the values were obtained:
OCT3 = biological target: T1, OCT3 (Homo sapiens, UniProt O75751); assay: Inhibition of model substrate uptake in OCT3-overexpressing HEK293 cells; format: cell-based
T1 construct: expressed in transfected cells; host or cells: HEK293
T1 sequence (O75751 1-556): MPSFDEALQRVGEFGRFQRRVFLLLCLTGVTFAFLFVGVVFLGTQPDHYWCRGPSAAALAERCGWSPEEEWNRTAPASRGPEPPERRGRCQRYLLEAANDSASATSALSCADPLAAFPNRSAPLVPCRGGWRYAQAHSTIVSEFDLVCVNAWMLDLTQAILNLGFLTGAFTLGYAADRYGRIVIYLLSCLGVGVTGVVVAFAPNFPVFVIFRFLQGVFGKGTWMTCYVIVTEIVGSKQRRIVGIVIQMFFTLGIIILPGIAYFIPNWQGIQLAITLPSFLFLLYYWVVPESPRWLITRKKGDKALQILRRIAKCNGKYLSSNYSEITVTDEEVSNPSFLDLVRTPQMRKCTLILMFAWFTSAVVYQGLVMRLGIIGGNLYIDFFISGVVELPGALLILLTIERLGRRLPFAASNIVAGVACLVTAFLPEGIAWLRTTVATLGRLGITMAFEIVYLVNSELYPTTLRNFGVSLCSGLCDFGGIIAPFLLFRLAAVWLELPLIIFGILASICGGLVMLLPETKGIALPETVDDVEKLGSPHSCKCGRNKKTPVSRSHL
Description: (§1) All experiments were carried out in transporter-overexpressing HEK293 cells. OCT1-, OCT2-, NET-, DAT-, and SERT-overexpressing cells as well as the empty-vector transfected control cell line were generated as described earlier,[26]−[28] whereas the OCT3-overexpressing HEK293 cells were generous gift of from Drs. Koepsell and Gorbulev (University of Würzburg, Germany). All cells were cultivated in Dulbecco’s modified Eagle’s medium (DMEM) supplemented with 10% (v/v) FCS, penicillin (100 U/mL), and streptomycin (100 μg/mL) and kept in culture for no longer than 30 passages.
(§2) As for the transport experiments, 300,000 HEK293 cells were plated in poly-D-lysine-coated 24-well plates 2 days ahead of the experiment. On every plate, two wells of empty vector (EV)-transfected cells were used as a control to account for the passive influx of the model substrate, and two wells of transporter-overexpressing cells were used to determine the noninhibited uptake of the model substrate. Cells were initially washed once with 37 °C HBSS+ and then incubated with 2 μM model substrate (0.2 μM for MPP^+ uptake by MATs) with and without 20 μM inhibitor for 5 min. For concentration-dependent inhibition experiments, the cells were incubated with increasing inhibitor concentrations. The incubation was terminated by aspiration of the buffer before cells were washed twice with ice-cold HBSS+ and lysed in 80% acetonitrile. Cell lysates were transferred into a black 96-well plate for the fluorescence measurement of ASP^+ or used for sample preparation for LC–MS/MS analysis. […] Fluorescence quantification was performed in technical duplicates.
(§3) Transporter-mediated net uptake was calculated as the difference between uptake in transporter-overexpressing cells and that in the empty-vector-transfected control. […] Vmax is the maximum transport velocity, while Km is defined as the substance concentration that is required to reach half of vmax. The ratio of vmax over Km is termed intrinsic clearance Clint. For inhibition experiments, the transport activity was calculated by using the following equation [drawing 1]
(§4) SubstrateEV refers to the passive uptake of model substrates into the control cells and substratenoninhibited is the uptake in transporter-overexpressing cells without the presence of any inhibitor. The percent inhibition values are then calculated as described in the following [drawing 2]
(§5) For concentration inhibition experiments, the transporter activity was plotted against the log10 of inhibitor concentrations, and the data were fitted by the following equation to determine IC50 values [drawing 3]
(§6) Y refers to the transporter activity, whereas Ymax is the maximum and Ymin is the minimal transporter activity. X is the log10 of inhibitor concentrations, IC50 is the half-maximal inhibitory concentration, and hill slope is the slope factor.

OCT1 = biological target: T2, OCT1 (Homo sapiens, UniProt O15245); assay: Inhibition of model substrate uptake in OCT1-overexpressing HEK293 cells; format: cell-based; parameters: expressed in transfected cells; host or cells: HEK293; details: for inhibition at 5 min, 20 μM / Sumatriptan inhibition [%]: human; for inhibition at 5 min, 20 μM: OCT1-overexpressing HEK293 cells; for inhibition at 5 min, 20 μM / ASP+ inhibition [%]: OCT1, 20 μM inhibitor, 5 min; for Sumatriptan inhibition [%]: pH 7.4
T2 sequence (O15245 1-554): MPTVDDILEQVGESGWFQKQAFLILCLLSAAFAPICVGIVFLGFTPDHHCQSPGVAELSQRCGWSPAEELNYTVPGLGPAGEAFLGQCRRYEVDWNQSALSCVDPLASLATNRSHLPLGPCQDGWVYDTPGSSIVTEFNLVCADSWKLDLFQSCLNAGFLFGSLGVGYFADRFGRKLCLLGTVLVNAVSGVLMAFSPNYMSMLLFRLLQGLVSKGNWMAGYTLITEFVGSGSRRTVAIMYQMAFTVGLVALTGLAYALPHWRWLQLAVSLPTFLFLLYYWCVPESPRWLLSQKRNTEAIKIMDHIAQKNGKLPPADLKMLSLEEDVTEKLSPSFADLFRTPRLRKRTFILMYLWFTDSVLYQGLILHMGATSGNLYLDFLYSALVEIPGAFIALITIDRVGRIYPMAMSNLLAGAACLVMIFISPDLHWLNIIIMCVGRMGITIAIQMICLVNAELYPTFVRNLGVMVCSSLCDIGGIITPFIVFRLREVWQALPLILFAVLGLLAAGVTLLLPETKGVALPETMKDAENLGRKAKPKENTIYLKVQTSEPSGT
Description: Koepsell and Gorbulev (University of Würzburg, Germany).
Fluorescence quantification was performed in technical duplicates.

OCT2 = biological target: T3, OCT2 (Homo sapiens, UniProt O15244); assay: Inhibition of model substrate uptake in OCT2-overexpressing HEK293 cells; details: for inhibition at 5 min, 20 μM / ASP+ inhibition [%] / N-Ethyllidocaine inhibition [%]: OCT2, 20 μM inhibitor
T3 sequence (O15244 1-555): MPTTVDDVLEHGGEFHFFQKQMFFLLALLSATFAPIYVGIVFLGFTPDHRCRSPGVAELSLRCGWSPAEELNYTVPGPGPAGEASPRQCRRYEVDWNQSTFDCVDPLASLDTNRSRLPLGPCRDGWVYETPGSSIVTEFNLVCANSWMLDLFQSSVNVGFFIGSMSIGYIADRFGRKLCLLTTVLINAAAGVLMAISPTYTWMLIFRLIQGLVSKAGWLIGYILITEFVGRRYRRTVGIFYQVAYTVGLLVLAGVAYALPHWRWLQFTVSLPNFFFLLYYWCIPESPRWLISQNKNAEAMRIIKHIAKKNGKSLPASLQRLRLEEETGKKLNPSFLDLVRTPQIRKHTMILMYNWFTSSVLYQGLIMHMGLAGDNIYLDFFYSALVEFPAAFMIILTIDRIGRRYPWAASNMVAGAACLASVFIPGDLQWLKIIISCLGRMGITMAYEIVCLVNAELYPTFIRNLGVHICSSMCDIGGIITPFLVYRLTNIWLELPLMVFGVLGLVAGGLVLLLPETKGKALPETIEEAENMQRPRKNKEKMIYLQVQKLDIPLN
Description: as §1, §2, §3, §4, §5, §6

[1] = HEK293, 5 min, read-out: (S)-Zolmitriptan inhibition [%], OCT3, 20 μM inhibitor, 2 μM (S)-zolmitriptan, 5 min
[2] = HEK293, 5 min, read-out: (S,S)-Ethambutol inhibition [%], OCT3, 20 μM inhibitor, 2 μM (S,S)-ethambutol, 5 min
[3] = HEK293, OCT3, 20 μM inhibitor, 2 μM ASP+, 5 min, read-out: ASP+ inhibition [%]
[4] = pH 7.4, probe (S,S)-ethambutol (2 μM), (S,S)-Ethambutol inhibition [%], 2 μM (S,S)-ethambutol
[5] = pH 7.4, probe ASP+ (2 μM), 2 μM ASP+, mean of three experiments, read-out: ASP+ inhibition [%]
[6] = pH 7.4, probe sumatriptan (2 μM), 2 μM sumatriptan, read-out: Sumatriptan inhibition [%]
[7] = human, OCT2-overexpressing HEK293 cells, pH 7.4, probe (S,S)-ethambutol (2 μM), (S,S)-Ethambutol inhibition [%], 2 μM (S,S)-ethambutol, 5 min
[8] = human, OCT2-overexpressing HEK293 cells, pH 7.4, probe ASP+ (2 μM), ASP+ inhibition [%], 2 μM ASP+, 5 min
[9] = human, OCT2-overexpressing HEK293 cells, pH 7.4, probe N-ethyllidocaine (2 μM), N-Ethyllidocaine inhibition [%], 2 μM N-ethyllidocaine, 5 min
[10] = IC50, OCT2, Table S5, 2 μM ASP+ as model substrate, 5 min
[11] = 2 μM ASP+, mean of three experiments

Structure (SMILES)	inhibition at 20 µM (OCT3; [1]) [%]	inhibition at 20 µM (OCT3; [2]) [%]	inhibition at 20 µM (OCT3; [3]) [%]	inhibition at 5 min, 20 μM (OCT1; [4]) [%]	inhibition at 5 min, 20 μM (OCT1; [5]) [%]	inhibition at 5 min, 20 μM (OCT1; [6]) [%]	inhibition at 5 min, 20 μM (OCT2; [7]) [%]	inhibition at 5 min, 20 μM (OCT2; [8]) [%]	inhibition at 5 min, 20 μM (OCT2; [9]) [%]	IC50 (OCT2; [10]) [µM]	ASP+ inhibition [%] (OCT1; [11])	Sumatriptan inhibition [%] (OCT1)	ASP+ inhibition [%] (OCT2; 2 μM ASP+, 5 min)	N-Ethyllidocaine inhibition [%] (OCT2; 2 μM N-ethyllidocaine, 5 min)	other results
CCCCN1CCCC[C@@H]1C(=O)Nc1c(C)cccc1C [(R)-Bupivacaine]	51.8	50.3	31.4	63.8	32.8	59.2	56.3	59.5	64.4						IC50 (OCT1; OCT1, Table 1, read-out: IC50): 10.2 µM; IC50 (OCT2; IC50 [μM], OCT2, Table 1): 21.4 µM
CC(C)(C)NC[C@@H](O)COc1nsnc1N1CCOCC1 [(R)-Timolol]	7.6	8.2	28.6	32.1	12.9	55	12	37.2	24.7	121					selectivity ratio at 5 min (OCT2; human, OCT2-overexpressing HEK293 cells, pH 7.4): 2
CC(C)C[C@H](N(C)C)C1(c2ccc(Cl)cc2)CCC1 [(S)-Sibutramine]											38.0	72.0	83.9	44.0	(S)-Zolmitriptan inhibition [%] (OCT3): 24.1; (S,S)-Ethambutol inhibition [%] (OCT3): 23.8; ASP+ inhibition [%] (OCT3; OCT3, 20 μM inhibitor, 2 μM ASP+, 5 min): -0.8%
C#CCN(C)[C@H](C)Cc1ccccc1 [(R)-Deprenyl]			12.6							2.4	21.6	62.3	101.0	52.3	inhibition at 20 µM (OCT3; HEK293, 5 min, read-out: (S)-Zolmitriptan inhibition [%]): 18%; inhibition at 20 µM (OCT3; HEK293, 5 min, read-out: (S,S)-Ethambutol inhibition [%]): 24.2%
Cc1cccc(C)c1OC[C@H](C)N [(S)-Mexiletine]	30	11.8	-6.6	78	40.1	84.3	58.7	52.9	51.3						
